{"source": "PubChem BioAssay (NCI)", "experiment_in_all_cases": "NCI tumour cell line growth inhibition, 48 h", "key": {"[1]": {"test_system": "DLD-1 colon"}, "[2]": {"test_system": "786-0 renal"}, "[3]": {"test_system": "SF-268 CNS"}, "[4]": {"test_system": "U251 CNS"}, "[5]": {"test_system": "A549 NSCLC"}, "[6]": {"test_system": "MDA-MB-435"}, "[7]": {"test_system": "RXF 393 renal"}, "[8]": {"test_system": "MDA-MB-231 breast"}, "[9]": {"test_system": "HT29 colon"}, "[10]": {"test_system": "SNB-75 CNS"}, "[11]": {"test_system": "MDA-N"}, "[12]": {"test_system": "OVCAR-8 ovarian"}, "[13]": {"test_system": "TK-10 renal"}, "[14]": {"test_system": "ACHN renal"}, "[15]": {"test_system": "SK-MEL-5 melanoma"}, "[16]": {"test_system": "HCT-116 colon"}, "[17]": {"test_system": "SF-539 CNS"}, "[18]": {"test_system": "MOLT-4 leukemia"}, "[19]": {"test_system": "MCF7 breast"}, "[20]": {"test_system": "UACC-62 melanoma"}, "[21]": {"test_system": "HL-60(TB) leukemia"}, "[22]": {"test_system": "UO-31 renal"}, "[23]": {"test_system": "SW-620 colon"}, "[24]": {"test_system": "CCRF-CEM leukemia"}, "[25]": {"test_system": "SR leukemia"}, "[26]": {"test_system": "NCI-H23 lung"}, "[27]": {"test_system": "RPMI-8226 leukemia"}, "[28]": {"test_system": "LXFL 529 NSCLC"}, "[29]": {"test_system": "IGROV1 ovarian"}, "[30]": {"test_system": "SK-MEL-28 melanoma"}, "[31]": {"test_system": "M19-MEL melanoma"}, "[32]": {"test_system": "SK-MEL-2 melanoma"}, "[33]": {"test_system": "NCI-H522 lung"}, "[34]": {"test_system": "HS 578T breast"}, "[35]": {"test_system": "SN12C renal"}, "[36]": {"test_system": "HOP-62 NSCLC"}, "[37]": {"test_system": "NCI-H460 lung"}, "[38]": {"test_system": "CAKI-1 renal"}, "[39]": {"test_system": "EKVX NSCLC"}, "[40]": {"test_system": "HCT-15 colon"}, "[41]": {"test_system": "OVCAR-5 ovarian"}, "[42]": {"test_system": "MALME-3M melanoma"}, "[43]": {"test_system": "SK-OV-3 ovarian"}, "[44]": {"test_system": "KM12 colon"}, "[45]": {"test_system": "A498 renal"}, "[46]": {"test_system": "SNB-19 CNS"}, "[47]": {"test_system": "DMS 273 small cell lung"}, "[48]": {"test_system": "K-562 leukemia"}, "[49]": {"test_system": "HOP-18 NSCLC"}, "[50]": {"test_system": "HCC-2998 colon"}, "[51]": {"test_system": "NCI-H226 lung"}, "[52]": {"test_system": "DU-145 prostate"}, "[53]": {"test_system": "COLO 205 colon"}, "[54]": {"test_system": "OVCAR-4 ovarian"}, "[55]": {"test_system": "M14 melanoma"}, "[56]": {"test_system": "T-47D breast"}, "[57]": {"test_system": "HOP-92 NSCLC"}, "[58]": {"test_system": "SNB-78 CNS"}, "[59]": {"test_system": "SF-295 CNS"}, "[60]": {"test_system": "UACC-257 melanoma"}, "[61]": {"test_system": "BT-549 breast"}}, "note": "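All cell lines were grown in 96-well plates and treated with compound for 48 hours. At the TGI there is no net growth.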"}
{"smiles": "CC(C)(Br)C(Br)CCC(=CCBr)CBr", "note": "(mixture of isomers)", "values": [{"measurement": "TGI", "setting": "[1]", "value": 11.2, "unit": "µM"}, {"measurement": "TGI", "setting": "[2]", "value": 3.84, "unit": "µM"}, {"measurement": "TGI", "setting": "[3]", "value": 4.85, "unit": "µM"}, {"measurement": "TGI", "setting": "[4]", "value": 8.26, "unit": "µM"}, {"measurement": "TGI", "setting": "[5]", "value": 28.3, "unit": "µM"}, {"measurement": "TGI", "setting": "[6]", "value": 14.1, "unit": "µM"}, {"measurement": "TGI", "setting": "[7]", "value": 6.48, "unit": "µM"}, {"measurement": "TGI", "setting": "[8]", "value": 26.3, "unit": "µM"}, {"measurement": "TGI", "setting": "[9]", "value": 9.16, "unit": "µM"}, {"measurement": "TGI", "setting": "[10]", "value": 10.9, "unit": "µM"}, {"measurement": "TGI", "setting": "[11]", "value": 4.68, "unit": "µM"}, {"measurement": "TGI", "setting": "[12]", "value": 6.36, "unit": "µM"}, {"measurement": "TGI", "setting": "[13]", "value": 22.5, "unit": "µM"}, {"measurement": "TGI", "setting": "[14]", "value": 21.6, "unit": "µM"}, {"measurement": "TGI", "setting": "[15]", "value": 12.4, "unit": "µM"}, {"measurement": "TGI", "setting": "[16]", "value": 4.41, "unit": "µM"}, {"measurement": "TGI", "setting": "[17]", "value": 10.3, "unit": "µM"}, {"measurement": "TGI", "setting": "[18]", "value": 6.66, "unit": "µM"}, {"measurement": "TGI", "setting": "[19]", "value": 13.2, "unit": "µM"}, {"measurement": "TGI", "setting": "[20]", "value": 4.4, "unit": "µM"}, {"measurement": "TGI", "setting": "[21]", "value": 2.15, "unit": "µM"}, {"measurement": "TGI", "setting": "[22]", "value": 27.5, "unit": "µM"}, {"measurement": "TGI", "setting": "[23]", "value": 7.18, "unit": "µM"}, {"measurement": "TGI", "setting": "[24]", "value": 6.1, "unit": "µM"}, {"measurement": "TGI", "setting": "[25]", "value": 4.69, "unit": "µM"}, {"measurement": "TGI", "setting": "[26]", "value": 12.1, "unit": "µM"}, {"measurement": "TGI", "setting": "[27]", "value": 4.83, "unit": "µM"}, {"measurement": "TGI", "setting": "[28]", "value": 11.6, "unit": "µM"}, {"measurement": "TGI", "setting": "[29]", "value": 8.9, "unit": "µM"}, {"measurement": "TGI", "setting": "[30]", "value": 6.86, "unit": "µM"}, {"measurement": "TGI", "setting": "[31]", "value": 4.2, "unit": "µM"}, {"measurement": "TGI", "setting": "[32]", "value": 9.32, "unit": "µM"}, {"measurement": "TGI", "setting": "[33]", "value": 3.12, "unit": "µM"}, {"measurement": "TGI", "setting": "[34]", "value": 49.7, "unit": "µM"}, {"measurement": "TGI", "setting": "[35]", "value": 4.29, "unit": "µM"}, {"measurement": "TGI", "setting": "[36]", "value": 8.89, "unit": "µM"}, {"measurement": "TGI", "setting": "[37]", "value": 9.9, "unit": "µM"}, {"measurement": "TGI", "setting": "[38]", "value": 33.1, "unit": "µM"}, {"measurement": "TGI", "setting": "[39]", "value": 49.7, "unit": "µM"}, {"measurement": "TGI", "setting": "[40]", "value": 5.98, "unit": "µM"}, {"measurement": "TGI", "setting": "[41]", "value": 37.2, "unit": "µM"}, {"measurement": "TGI", "setting": "[42]", "value": 13.5, "unit": "µM"}, {"measurement": "TGI", "setting": "[43]", "value": 36.4, "unit": "µM"}, {"measurement": "TGI", "setting": "[44]", "value": 10.2, "unit": "µM"}, {"measurement": "TGI", "setting": "[45]", "value": 44.6, "unit": "µM"}, {"measurement": "TGI", "setting": "[46]", "value": 31.1, "unit": "µM"}, {"measurement": "TGI", "setting": "[47]", "value": 3.51, "unit": "µM"}, {"measurement": "TGI", "setting": "[48]", "value": 6.7, "unit": "µM"}, {"measurement": "TGI", "setting": "[49]", "value": 31.9, "unit": "µM"}, {"measurement": "TGI", "setting": "[50]", "value": 26.6, "unit": "µM"}, {"measurement": "TGI", "setting": "[51]", "value": 28.3, "unit": "µM"}, {"measurement": "TGI", "setting": "[52]", "value": 22.3, "unit": "µM"}, {"measurement": "TGI", "setting": "[53]", "value": 10.7, "unit": "µM"}, {"measurement": "TGI", "setting": "[54]", "value": 17, "unit": "µM"}, {"measurement": "TGI", "setting": "[55]", "value": 4.29, "unit": "µM"}, {"measurement": "TGI", "setting": "[56]", "value": 8.53, "unit": "µM"}, {"measurement": "TGI", "setting": "[57]", "value": 13.3, "unit": "µM"}, {"measurement": "TGI", "setting": "[58]", "value": 17.1, "unit": "µM"}, {"measurement": "TGI", "setting": "[59]", "value": 10.9, "unit": "µM"}, {"measurement": "TGI", "setting": "[60]", "value": 15.6, "unit": "µM"}, {"measurement": "TGI", "setting": "[61]", "value": 5.62, "unit": "µM"}]}
